The values below are quoted from earlier work in patent publication US8338381B2, “Composition and method for the treatment of eye disease” (ADER Enterprise, Inc., priority 2003, dated 2012).

One series has as its system eye cataracts. Conditions: administered directly to the eye; Babizhayev 1996.
For series [1] the following is noted: administered directly to the eye; Babizhayev 1996.

For `NCCC(=O)N[C@@H](Cc1cnc[nH]1)C(=O)O` [L-carnosine, β-alanyl-L-histidine], the “effect on eye cataracts beyond placebo control” value with eye cataracts was “does not lead to accumulation in the aqueous humor of the eye or have any significant effect on eye cataracts beyond that of a placebo control”. The “accumulation in the aqueous humor of the eye” value in series [1] was “does not lead to accumulation in the aqueous humor of the eye”.
